The first assay concerns the target T1, hCRTH2 (Homo sapiens, UniProt Q9Y5Y4).
T1 construct: expressed in transfected cells; host or cells: HEK (human embryonic kidney) cells expressing hCRTH2; membrane preparation
T1 sequence (Q9Y5Y4 1-395): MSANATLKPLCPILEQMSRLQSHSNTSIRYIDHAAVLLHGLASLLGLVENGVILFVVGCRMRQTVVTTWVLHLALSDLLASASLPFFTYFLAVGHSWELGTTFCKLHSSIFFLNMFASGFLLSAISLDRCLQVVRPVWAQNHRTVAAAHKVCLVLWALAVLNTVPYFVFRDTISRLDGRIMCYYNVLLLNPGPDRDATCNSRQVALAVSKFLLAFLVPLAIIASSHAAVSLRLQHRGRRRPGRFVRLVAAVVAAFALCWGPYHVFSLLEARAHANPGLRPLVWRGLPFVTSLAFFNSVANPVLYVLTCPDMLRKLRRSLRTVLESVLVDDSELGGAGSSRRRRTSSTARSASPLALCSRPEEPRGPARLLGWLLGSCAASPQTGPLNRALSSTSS
The assay is described as follows: Radioligand binding assay ([3H]PGD2 competition, HEK-hCRTH2 membranes). The settings on record: [3H]PGD2 binding, rated A-E (Table A). In outline: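 Competition binding with 3.0 nM [3H]PGD2 and 8-20 μg HEK-hCRTH2 membrane protein in 50 mM Tris-HCl pH 7.4, 1 mM EDTA, 2 mM MnCl2, 1% Me2SO, 60 min at room temperature. Nonspecific binding defined with 10 μM PGD2; bound radioactivity counted after filtration.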
The term Ki denotes the equilibrium dissociation constant of an inhibitor or competing ligand from its target. Low readings indicate a stronger hold on the target, high ones a looser hold on the target. Turning to `O=C(O)CCCCc1nc2cc(C(=O)N3CC[C@H](c4ccccc4)C3)ccc2nc1-c1ccc(Cl)cc1` [16L, 3-(4-chlorophenyl)-7-[(3(R)-phenyl-1-pyrrolidinyl)carbonyl]-2-quinoxalinepentanoic acid], the Ki fell in the range of 2.1 to 20 nM.

Compound `O=C(O)CCCCc1nc2cc(C(=O)N3CC[C@@H](c4ccccc4)C3)ccc2nc1-c1ccc(Cl)cc1` [16M, 3-(4-chlorophenyl)-7-[(3(S)-phenyl-1-pyrrolidinyl)carbonyl]-2-quinoxalinepentanoic acid] returned a Ki of 0.1 to 2 nM.

For `O=C(O)CCCCc1nc2cc(C(=O)N3CCC[C@H](c4ccccc4)C3)ccc2nc1-c1ccc(Cl)cc1` [16N, 3-(4-chlorophenyl)-7-[(3(R)-phenyl-1-piperidinyl)carbonyl]-2-quinoxalinepentanoic acid], the Ki is 0.1 to 2 nM.

Consider `O=C(O)CCCCc1nc2cc(C(=O)NCc3ccc(OC(F)(F)F)cc3)ccc2nc1-c1ccc(Cl)cc1` [16P, 3-(4-chlorophenyl)-7-[[[[4-(trifluoromethoxy)phenyl]methyl]amino]carbonyl]-2-quinoxalinepentanoic acid], for which the Ki was in the range of 0.1 to 2 nM.

As to `O=C(O)CCCCc1nc2cc(C(=O)NCc3cc(Cl)cc(Cl)c3)ccc2nc1-c1ccc(Cl)cc1` [16Q, 3-(4-chlorophenyl)-7-[[[(3,5-dichlorophenyl)methyl]amino]carbonyl]-2-quinoxalinepentanoic acid], the Ki was 0.1 to 2 nM.

In the case of `O=C(O)CCCCc1nc2cc(C(=O)NCc3ccc(F)cc3)ccc2nc1-c1ccc(Cl)cc1` [16R, 3-(4-chlorophenyl)-7-[[[(4-fluorophenyl)methyl]amino]carbonyl]-2-quinoxalinepentanoic acid], the Ki lay within 0.1 to 2 nM.

For the compound `C[C@@H](NC(=O)c1ccc2nc(-c3ccc(Cl)cc3)c(CCCCC(=O)O)nc2c1)c1ccc(F)cc1` [16S, 3-(4-chlorophenyl)-7-[[[1(R)-(4-fluorophenyl)ethyl]amino]carbonyl]-2-quinoxalinepentanoic acid], the Ki lay in the range of 0.1 to 2 nM.

On to `C[C@H](NC(=O)c1ccc2nc(-c3ccc(Cl)cc3)c(CCCCC(=O)O)nc2c1)c1ccc(F)cc1` [16T, 3-(4-chlorophenyl)-7-[[[1(S)-(4-fluorophenyl)ethyl]amino]carbonyl]-2-quinoxalinepentanoic acid], for which the Ki is 0.1 to 2 nM.

Compound `O=C(O)CCCCc1nc2cc(C(=O)NCc3ccc(C(F)(F)F)cc3)ccc2nc1-c1ccc(Cl)cc1` [16U, 3-(4-chlorophenyl)-7-[[[[4-(trifluoromethyl)phenyl]methyl]amino]carbonyl]-2-quinoxalinepentanoic acid] had a Ki of 0.1 to 2 nM.

Consider `O=C(O)CCCCc1nc2cc(C(=O)N[C@H](c3ccc(Cl)cc3)C(F)(F)F)ccc2nc1-c1ccc(Cl)cc1` [16V, 3-(4-chlorophenyl)-7-[[[1(R)-(4-chlorophenyl)-2,2,2-trifluoroethyl]amino]carbonyl]-2-quinoxalinepentanoic acid], for which the Ki lay in the range of 0.1 to 2 nM.

With `O=C(O)CCCCc1nc2cc(C(=O)N[C@@H](c3ccc(Cl)cc3)C(F)(F)F)ccc2nc1-c1ccc(Cl)cc1` [16W], the inhibition constant (Ki) was in the range of 0.1 to 2 nM.

Take `O=C(O)CCCCc1nc2cc(C(=O)N[C@@H](c3ccc(F)cc3)C(F)(F)F)ccc2nc1-c1ccc(Cl)cc1` [16Y, 3-(4-chlorophenyl)-7-[[[2,2,2-trifluoro-1(S)-(4-fluorophenyl)ethyl]amino]carbonyl]-2-quinoxalinepentanoic acid]: the Ki is 0.1 to 2 nM.

Compound `C[C@H](NC(=O)c1ccc2nc(-c3ccc(Cl)cc3)c(CCCCC(=O)O)nc2c1)c1ccccn1` [16Z, 3-(4-chlorophenyl)-7-[[[1(S)-(2-pyridinyl)ethyl]amino]carbonyl]-2-quinoxalinepentanoic acid] gave a Ki of 2.1 to 20 nM.

For the compound `O=C(O)CCCCc1nc2cc(C(=O)N[C@@H](c3ccccc3)C(F)(F)F)ccc2nc1-c1ccc(Cl)cc1` [16i, 3-(4-chlorophenyl)-7-[[(2,2,2-trifluoro-1(s)-phenylethyl)amino]carbonyl]-2-quinoxalinepentanoic acid], the Ki lay in the range of 0.1 to 2 nM.

For the compound `O=C(O)CCCCc1nc2cc(C(=O)N3CCC[C@@H](c4ccccc4)C3)ccc2nc1-c1ccc(Cl)cc1` [16o, 3-(4-chlorophenyl)-7-[(3(S)-phenyl-1-piperidinyl)carbonyl]-2-quinoxalinepentanoic acid], the Ki lay in the range of 0.1 to 2 nM.

`CC(CCc1nc2cc(C(=O)N[C@@H](C)c3ccc(Cl)cc3)ccc2nc1-c1ccc(Cl)cc1)CC(=O)O` (some centres unmarked) [17D] came in with a Ki of 0.1 to 2 nM.

In turn, `CC(CCc1nc2cc(C(=O)N[C@H](C)c3ccc(Cl)cc3)ccc2nc1-c1ccc(Cl)cc1)CC(=O)O` (stereo partly drawn) [17E, 3-(4-chlorophenyl)-7-[[[1(R)-(4-chlorophenyl)ethyl]amino]carbonyl]-beta-methyl-2-quinoxalinepentanoic acid] showed a Ki of 2.1 to 20 nM.

`CC(CCc1nc2cc(C(=O)N3CC(c4ccccc4)C3)ccc2nc1-c1ccc(Cl)cc1)CC(=O)O` (stereo not drawn) [17F, 3-(4-chlorophenyl)-beta-methyl-7-[(3-phenyl-1-azetidinyl)carbonyl]-2-quinoxalinepentanoic acid]: the Ki was 0.1 to 2 nM.

Consider `CC(CCc1nc2cc(C(=O)N[C@H](c3ccc(F)cc3)C(F)(F)F)ccc2nc1-c1ccc(Cl)cc1)CC(=O)O` (some centres unmarked) [17G], for which the Ki was 2.1 to 20 nM.

Consider `COc1ccc(CNC(=O)c2ccc3nc(-c4ccc(Cl)cc4)c(CCC(C)CC(=O)O)nc3c2)cc1` (centres unmarked) [17H], for which the Ki lay in the range of 2.1 to 20 nM.

`CC(CCc1nc2cc(C(=O)N3CCC[C@H](c4ccccc4)C3)ccc2nc1-c1ccc(Cl)cc1)CC(=O)O` (stereo partly drawn) [17J, 3-(4-chlorophenyl)-beta-methyl-7-[(3(R)-phenyl-1-piperidinyl)carbonyl]-2-quinoxalinepentanoic acid] returned a Ki of 2.1 to 20 nM.

In turn, `CC(CCc1nc2cc(C(=O)N3CC[C@@H](c4ccccc4)C3)ccc2nc1-c1ccc(Cl)cc1)CC(=O)O` (stereo partly drawn) [17K, 3-(4-chlorophenyl)-beta-methyl-7-[(3(S)-phenyl-1-pyrrolidinyl)carbonyl]-2-quinoxalinepentanoic acid] gave a Ki of 0.1 to 2 nM.

The compound `CC(CCc1nc2cc(C(=O)N3CC[C@H](c4ccccc4)C3)ccc2nc1-c1ccc(Cl)cc1)CC(=O)O` (stereo partly drawn) [17L, 3-(4-chlorophenyl)-beta-methyl-7-[(3(R)-phenyl-1-pyrrolidinyl)carbonyl]-2-quinoxalinepentanoic acid] showed a Ki of 2.1 to 20 nM.

The compound `CC(CCc1nc2cc(C(=O)N[C@@H](c3ccccc3)C(F)(F)F)ccc2nc1-c1ccc(Cl)cc1)CC(=O)O` (stereo partly drawn) [17M, 3-(4-chlorophenyl)-beta-methyl-7-[[[2,2,2-trifluoro-(1S)-phenylethyl]amino]carbonyl]-2-quinoxaline pentanoic acid] yielded a Ki of 2.1 to 20 nM.

`CC(CCc1nc2cc(C(=O)N[C@H](c3ccccc3)C(F)(F)F)ccc2nc1-c1ccc(Cl)cc1)CC(=O)O` (stereo partly drawn) [17N, 3-(4-chlorophenyl)-beta-methyl-7-[[(2,2,2-trifluoro-1(R)-phenylethyl)amino]carbonyl]-2-quinoxalinepentanoic acid]: the Ki was 2.1 to 20 nM.

The compound `COc1ccc([C@H](C)NC(=O)c2ccc3nc(-c4ccc(Cl)cc4)c(CCC(C)CC(=O)O)nc3c2)cc1` (stereo partly drawn) [17P, 3-(4-chlorophenyl)-7-[[[1(S)-(4-methoxyphenyl)ethyl]amino]carbonyl]-beta-methyl-2-quinoxaline pentanoic acid] registered a Ki of 2.1 to 20 nM.

The same assay, now with this note: [3H]PGD2 binding, values in text.
For the compound `C[C@@H](NC(=O)c1ccc2nc(-c3ccc(Cl)cc3)c(CCCCC(=O)O)nc2c1)c1ccc(F)cc1` [16S, 3-(4-chlorophenyl)-7-[[[1(R)-(4-fluorophenyl)ethyl]amino]carbonyl]-2-quinoxalinepentanoic acid], the inhibitory constant (Ki) was 0.7 nM.

As to `O=C(O)CCCCc1nc2cc(C(=O)N[C@H](c3ccc(Cl)cc3)C(F)(F)F)ccc2nc1-c1ccc(Cl)cc1` [16V, 3-(4-chlorophenyl)-7-[[[1(R)-(4-chlorophenyl)-2,2,2-trifluoroethyl]amino]carbonyl]-2-quinoxalinepentanoic acid], the Ki worked out at 2.7 nM.

As to `O=C(O)CCCCc1nc2cc(C(=O)N[C@@H](c3ccc(Cl)cc3)C(F)(F)F)ccc2nc1-c1ccc(Cl)cc1` [16W], the Ki turned out to be 0.4 nM.

The values are drawn from patent US9469615B2, “Quinoxalines and AZA-quinoxalines as CRTH2 receptor modulators” (Merck Sharp & Dohme Corp., priority 2010, dated 2016).
